Measurements: patent publication US4885307A, “Derivatives of 1-arylsulphonyl-1,5-dihydro-2H-pyrrol-2-one, and compositions containing them” (Roussel Uclaf, priority 1987, dated 1989)

Tested on: male mice (Charles Rivers CD1)
Assay: Learning and memorizing: anti-amnesiac effect on electric shock-induced retrograde amnesia (two-compartment luminous/dark box avoidance)
Assay type: in vivo
Details: for Percentage increase in latency time in comparison with the controls: 3 hours after treatment, * = statistically different in comparison with controls; for anti-amnesic activity: at doses between 50 and 200 mg/kg, oral route
Excerpt: There were used male mice (Charles Rivers CD1) weighing 25-30 g. The animals were placed in the luminous part of a box with two compartments communicating by an opening [F. Barzaghi and G. Galliani, Brit. J. Pharmacol. 86, p.
At the instant when the mouse passes from the luminous compartment to the dark compartment, the opening closes and it is immediately punished by an electric discharge to the paws. The animal submitted to this procedure learns to memorize the punishment. In fact, if it is put back in the luminous compartment, it will thus avoid crossing the opening and reentering the dark compartment.
In order to induce a retrograde amnesia, the animals are submitted immediately after learning to an electric shock. After the electric shock, the products are administered by oral route at different doses.
There were used from 10 to 50 animals per dose.
The anti-amnesiac effect of the products is evaluated 3 hours after the treatment, using the same procedure as that utilized for the acquisition.
The time taken by the animal to return to the dark chamber (time limit 180 seconds) is used as evaluation parameter.
The active products are those which cause a significant increase in the latency time with a bell-shaped dose-response curve.
The results are expressed as percentages of the increase of the latency time in comparison with the corresponding controls.

CCCCOC1C=CC(=O)N1S(=O)(=O)c1ccccc1 (stereo not drawn) [Example 4, 1-benzenesulphonyl-5-n-butoxy-1,5-dihydro-2H-pyrrol-2-one]
Percentage increase in latency time in comparison with the controls (50 mg/kg per os): 54%
Percentage increase in latency time in comparison with the controls (100 mg/kg per os): 96%
Percentage increase in latency time in comparison with the controls (200 mg/kg per os): 79%
anti-amnesic activity: have shown an anti-amnesic activity

CCCCCOC1C=CC(=O)N1S(=O)(=O)c1ccccc1 (stereo not drawn) [Example 6, 1-benzenesulphonyl-1,5-dihydro-5-n-pentyloxy-2H-pyrrol-2-one]
Percentage increase in latency time in comparison with the controls (50 mg/kg per os): 73%
Percentage increase in latency time in comparison with the controls (100 mg/kg per os): 92%
Percentage increase in latency time in comparison with the controls (200 mg/kg per os): 76%
anti-amnesic activity: have shown an anti-amnesic activity

CCCCOC1C=CC(=O)N1S(=O)(=O)c1cccc(C(F)(F)F)c1 (stereo not drawn) [Example 12, 1-(3-trifluoromethyl-benzenesulphonyl)-5-n-butyloxy-1,5-dihydro-2H-pyrrol-2-one]
Percentage increase in latency time in comparison with the controls (50 mg/kg per os): 20%
Percentage increase in latency time in comparison with the controls (100 mg/kg per os): 75%
Percentage increase in latency time in comparison with the controls (200 mg/kg per os): 92%
anti-amnesic activity: have shown an anti-amnesic activity

NC(=O)CN1CCCC1=O [PIRACETAM, reference compound]
Percentage increase in latency time in comparison with the controls (50 mg/kg per os): 10%
Percentage increase in latency time in comparison with the controls (100 mg/kg per os): 48%
Percentage increase in latency time in comparison with the controls (200 mg/kg per os): 20%
